Key:
Type in all cases: binding
Conditions in all cases: Compound Concentration 10 µM
panel of 442 kinases [1] = target: T1, panel of 442 kinases (Homo sapiens, UniProt P00533, DEL746-750)
T1 construct: purchased KINOMEscan
From the text: (§1) We assessed the selectivity of members of this scaffold using the KINOMEscan methodology across a near comprehensive panel of 442 kinases [[18,27]].

panel of 442 kinases [2] = target: T2, panel of 442 kinases (Homo sapiens, UniProt Q5VT25)
T2 construct: purchased KINOMEscan
From the text: as §1

panel of 442 kinases [3] = target: T3, panel of 442 kinases (Homo sapiens, UniProt Q08881)
T3 construct: purchased KINOMEscan
T3 sequence (Q08881 1-620): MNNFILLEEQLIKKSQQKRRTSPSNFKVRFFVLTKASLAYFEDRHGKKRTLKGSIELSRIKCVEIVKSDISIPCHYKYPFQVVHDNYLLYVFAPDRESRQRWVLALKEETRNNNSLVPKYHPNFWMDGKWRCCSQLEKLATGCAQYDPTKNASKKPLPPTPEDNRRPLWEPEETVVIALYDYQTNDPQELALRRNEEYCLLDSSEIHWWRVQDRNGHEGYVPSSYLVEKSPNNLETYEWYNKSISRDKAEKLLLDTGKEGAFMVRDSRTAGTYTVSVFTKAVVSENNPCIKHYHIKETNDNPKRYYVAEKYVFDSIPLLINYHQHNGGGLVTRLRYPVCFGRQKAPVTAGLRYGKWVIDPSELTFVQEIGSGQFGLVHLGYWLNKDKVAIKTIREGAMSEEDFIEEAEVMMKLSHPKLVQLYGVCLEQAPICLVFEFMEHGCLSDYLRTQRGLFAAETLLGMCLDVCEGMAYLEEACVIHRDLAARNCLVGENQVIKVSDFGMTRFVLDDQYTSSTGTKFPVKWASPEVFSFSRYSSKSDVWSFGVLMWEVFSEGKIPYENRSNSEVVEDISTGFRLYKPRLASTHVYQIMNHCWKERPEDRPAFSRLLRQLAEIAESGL
From the text: as §1

T1 sequence (P00533 with tags, fused parts or gaps DEL746-750): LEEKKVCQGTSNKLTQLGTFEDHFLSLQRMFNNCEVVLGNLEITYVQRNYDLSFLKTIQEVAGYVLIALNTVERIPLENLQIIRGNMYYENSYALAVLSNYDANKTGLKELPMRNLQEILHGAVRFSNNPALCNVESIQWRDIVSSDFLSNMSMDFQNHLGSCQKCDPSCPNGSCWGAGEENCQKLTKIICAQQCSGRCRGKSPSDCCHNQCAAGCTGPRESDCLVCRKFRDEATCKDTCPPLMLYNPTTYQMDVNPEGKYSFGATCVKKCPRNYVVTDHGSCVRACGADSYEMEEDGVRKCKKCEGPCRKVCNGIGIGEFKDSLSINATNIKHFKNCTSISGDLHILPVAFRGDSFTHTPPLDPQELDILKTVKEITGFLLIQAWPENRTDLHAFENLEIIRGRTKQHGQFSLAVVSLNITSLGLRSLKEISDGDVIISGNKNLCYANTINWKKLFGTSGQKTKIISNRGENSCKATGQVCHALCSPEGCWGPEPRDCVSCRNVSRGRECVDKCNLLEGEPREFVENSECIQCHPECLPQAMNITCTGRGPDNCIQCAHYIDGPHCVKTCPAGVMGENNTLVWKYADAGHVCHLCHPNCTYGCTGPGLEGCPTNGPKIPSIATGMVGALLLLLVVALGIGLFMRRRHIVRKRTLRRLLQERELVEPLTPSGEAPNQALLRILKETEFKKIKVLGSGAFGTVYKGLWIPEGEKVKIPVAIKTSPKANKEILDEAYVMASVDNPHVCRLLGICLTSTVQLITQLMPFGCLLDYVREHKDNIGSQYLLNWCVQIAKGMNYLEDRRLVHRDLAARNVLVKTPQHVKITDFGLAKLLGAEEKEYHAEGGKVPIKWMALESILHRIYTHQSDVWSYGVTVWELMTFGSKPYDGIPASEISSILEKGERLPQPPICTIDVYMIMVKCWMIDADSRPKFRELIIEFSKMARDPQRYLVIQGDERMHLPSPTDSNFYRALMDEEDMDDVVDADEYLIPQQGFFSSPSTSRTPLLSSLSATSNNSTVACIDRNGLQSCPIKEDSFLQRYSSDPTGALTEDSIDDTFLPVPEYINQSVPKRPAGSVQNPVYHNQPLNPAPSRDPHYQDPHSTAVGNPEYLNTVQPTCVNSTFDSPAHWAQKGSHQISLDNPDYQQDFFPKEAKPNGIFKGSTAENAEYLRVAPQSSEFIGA
T2 sequence (Q5VT25 whole entry): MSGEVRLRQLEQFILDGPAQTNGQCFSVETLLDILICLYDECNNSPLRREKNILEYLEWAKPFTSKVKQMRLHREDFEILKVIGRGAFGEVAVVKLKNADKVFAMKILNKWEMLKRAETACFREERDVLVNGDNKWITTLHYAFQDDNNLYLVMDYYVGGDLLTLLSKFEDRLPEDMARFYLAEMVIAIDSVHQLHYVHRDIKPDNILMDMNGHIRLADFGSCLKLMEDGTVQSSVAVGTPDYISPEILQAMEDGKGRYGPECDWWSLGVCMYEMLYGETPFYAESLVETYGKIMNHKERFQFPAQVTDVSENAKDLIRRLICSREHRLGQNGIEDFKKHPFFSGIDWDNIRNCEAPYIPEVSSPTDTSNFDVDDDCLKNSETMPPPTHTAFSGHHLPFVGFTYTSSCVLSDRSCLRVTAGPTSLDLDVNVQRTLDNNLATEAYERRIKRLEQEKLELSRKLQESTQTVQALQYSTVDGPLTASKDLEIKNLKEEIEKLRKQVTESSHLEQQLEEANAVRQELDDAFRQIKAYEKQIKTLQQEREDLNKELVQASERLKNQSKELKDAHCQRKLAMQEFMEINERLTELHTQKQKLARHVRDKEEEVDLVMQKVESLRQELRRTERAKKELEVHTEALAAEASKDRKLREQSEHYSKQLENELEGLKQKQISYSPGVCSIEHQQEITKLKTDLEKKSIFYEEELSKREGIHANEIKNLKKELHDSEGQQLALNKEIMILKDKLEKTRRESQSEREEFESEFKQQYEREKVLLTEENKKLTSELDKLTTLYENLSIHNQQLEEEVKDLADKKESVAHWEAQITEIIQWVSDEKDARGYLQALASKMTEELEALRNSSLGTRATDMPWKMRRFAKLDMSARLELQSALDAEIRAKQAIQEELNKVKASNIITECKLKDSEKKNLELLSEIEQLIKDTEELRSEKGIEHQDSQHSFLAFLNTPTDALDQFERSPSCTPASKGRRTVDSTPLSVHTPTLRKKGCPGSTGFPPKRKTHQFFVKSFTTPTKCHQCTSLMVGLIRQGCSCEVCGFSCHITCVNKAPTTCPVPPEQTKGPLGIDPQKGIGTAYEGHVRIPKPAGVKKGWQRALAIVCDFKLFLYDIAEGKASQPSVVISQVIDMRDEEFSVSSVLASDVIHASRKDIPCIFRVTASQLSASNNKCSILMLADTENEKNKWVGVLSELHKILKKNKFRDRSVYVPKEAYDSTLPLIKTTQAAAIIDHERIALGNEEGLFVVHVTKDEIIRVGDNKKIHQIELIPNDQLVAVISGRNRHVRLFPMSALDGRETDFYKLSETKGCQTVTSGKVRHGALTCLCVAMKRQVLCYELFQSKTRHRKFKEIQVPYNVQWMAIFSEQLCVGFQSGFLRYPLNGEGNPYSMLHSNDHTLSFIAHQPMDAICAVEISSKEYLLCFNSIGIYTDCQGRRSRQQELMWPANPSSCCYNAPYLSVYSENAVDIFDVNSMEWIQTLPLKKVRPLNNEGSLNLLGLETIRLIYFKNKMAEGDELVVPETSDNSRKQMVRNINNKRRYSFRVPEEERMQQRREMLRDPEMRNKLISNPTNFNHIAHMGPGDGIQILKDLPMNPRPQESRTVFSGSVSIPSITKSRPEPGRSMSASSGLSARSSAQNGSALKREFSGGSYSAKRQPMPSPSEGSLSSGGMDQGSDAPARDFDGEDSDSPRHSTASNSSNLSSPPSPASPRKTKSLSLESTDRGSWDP

Compound | KINOMEscan: EGFR(E746-A750del) (panel of 442 kinases [1]) | KINOMEscan: MRCKA (panel of 442 kinases [2]) | KINOMEscan: ITK (panel of 442 kinases [3])
COc1cc(C(=O)N2CCC(N3CCN(C)CC3)CC2)ccc1Nc1ncc2c(n1)N(C1CCCC1)c1ccccc1C(=O)N2C [Compound 25, 11-cyclopentyl-2-((2-methoxy-4-(4-(4-methylpiperazin-1-yl)piperidine-1-carbonyl)phenyl)amino)-5-methyl-5H-benzo[e]pyrimido[5,4-b][1,4]diazepin-6(11H)-one] | 80 | 100 | 100
CCOc1cc(C(=O)N2CCC(N3CCN(C)CC3)CC2)ccc1Nc1ncc2c(n1)N(C1CCCC1)c1ccccc1C(=O)N2C [Compound 26] | 100 | 100 | 100
COc1cc(C(=O)N2CCC(N3CCN(C)CC3)CC2)ccc1Nc1ncc2c(n1)N(C)c1ccccc1C(=O)N2C [15 (LRRK2-IN-1)] | 72 | 100 | 82

— PMC3914206
